These results are taken from US12220421B2, “Inhibitors of C. difficile spore germination” (THE BOARDS OF REGENTS OF THE NEVADA SYSTEM OF HIGHER …, priority 2021, dated 2025).

The test system of series [1] is C. difficile 630 strain. The conditions noted are these: literature, cited from earlier work; for IC50: read-out: IC50 against 630 strain.
Series [2] deals with C. difficile R20291 spores. The note with it: literature, cited from earlier work.
Series [3] concerns the target C. difficile spore germination. The conditions noted are these: literature values; read-out: Ki, inhibition of germination; cited from earlier work.
Series [4] has as its system C. difficile R20291 spores. Briefly: C. difficile spore germination assay (optical density, OD580). The conditions noted are these: 6 mM taurocholate, 12 mM glycine; for IC50 / activity at 125 µM: Clostridioides difficile, R20291SPORES; for activity at 125 µM / % Germination (125 μM): compound 125 μM.
The nature of series [5]: Incubation with feces / murine microbiota (degradation). It is filed as in vitro ADME. The note with it: 3 days incubation with feces.
Series [6] concerns C. difficile 630 strain. Briefly: Spore germination inhibition against C. difficile 630 strain (literature). In kind it is cell-based.
[7] abbreviates: read-out: % Germination (125 μM), Table 5, 100% indicates no inhibition.
The mark [8] stands for this setting: Table 5, 100% indicates no inhibition.

Entries after “also recorded” stand apart in the source; their conditions may differ. Like-named read-outs stand apart in the source and are kept apart here.

For the molecule `C[C@H](CCC(=O)Nc1cccc(S(=O)(=O)O)c1)[C@H]1CC[C@H]2[C@@H]3[C@H](O)C[C@@H]4C[C@H](O)CC[C@]4(C)[C@H]3C[C@H](O)[C@]12C` [CamSA], in the series on C. difficile 630 strain [1], the IC50 is 58 µM and the “Activity against 630 strain” value is reported as “active”. Also, the “Activity against R20291 strain” value in series [2] (hypervirulent R20291 strain) was “no inhibitory or prophylactic activity; also recorded: inactive”. Besides, in series [3], the Ki is 50 µM.

For the molecule `C[C@H](CCc1ncc2ccccc2n1)[C@H]1CC[C@H]2[C@@H]3[C@H](O)C[C@@H]4C[C@H](O)CC[C@]4(C)[C@H]3C[C@H](O)[C@]12C` [Compound 29], the IC50 in series [4] (Table 3) is 22 ± 3 µM. The activity at 125 µM in series [4] (read-out: % Germination, Table 3, ± standard deviation) was 17 ± 3%. In series [5], the “Degradation on incubation with feces” value was “not degraded”.

`C[C@H](CCC(=O)Nc1ccccc1)[C@H]1CC[C@H]2[C@@H]3[C@H](O)C[C@@H]4C[C@H](O)CC[C@]4(C)[C@H]3CC[C@]12C` [Compound 53]: in the series with C. difficile 630 strain [1], the “Activity against 630 strain” value is “inactive up to the maximum tested concentration”. The molecule also came in with an IC50 in series [4] (Table 5) of 4 ± 0.5 µM. Further, in series [4] (setting [7]), the activity at 125 µM amounted to 14 ± 0.6%.

Turning to `COc1ccccc1NC(=O)CC[C@@H](C)[C@H]1CC[C@H]2[C@@H]3[C@H](O)C[C@@H]4C[C@H](O)CC[C@]4(C)[C@H]3CC[C@]12C` [Compound 54], the midpoint of inhibition in series [4] (Table 5), the IC50, lay at 6 ± 1 µM. In series [4] (setting [7]), the activity at 125 µM worked out at 31 ± 2%.

For the molecule `C[C@H](CCC(=O)Nc1cccc(F)c1)[C@H]1CC[C@H]2[C@@H]3[C@H](O)C[C@@H]4C[C@H](O)CC[C@]4(C)[C@H]3CC[C@]12C` [Compound 55], the activity at 125 µM in series [4] (setting [7]) worked out at 100%.

Consider `Cc1ccc(F)cc1NC(=O)CC[C@@H](C)[C@H]1CC[C@H]2[C@@H]3[C@H](O)C[C@@H]4C[C@H](O)CC[C@]4(C)[C@H]3CC[C@]12C` [Compound 56], for which, in series [4] (setting [7]), the activity at 125 µM turned out to be 66 ± 6%.

`C[C@H](CCC(=O)Nc1ccccc1)[C@H]1CC[C@H]2[C@@H]3CC[C@@H]4C[C@H](O)CC[C@]4(C)[C@H]3C[C@H](O)[C@]12C` [Compound 57]: the IC50 in series [4] (Table 5) worked out at 1.3 ± 0.1 µM. In addition, the activity at 125 µM in series [4] (setting [7]) amounted to 3 ± 0.2%.

On to `COc1ccccc1NC(=O)CC[C@@H](C)[C@H]1CC[C@H]2[C@@H]3CC[C@@H]4C[C@H](O)CC[C@]4(C)[C@H]3CC[C@]12C` [Compound 58], for which the IC50 in series [4] (Table 5) is 2.4 ± 0.3 µM. The “% Germination (125 μM)” value in series [4] (setting [8]) worked out at 0.4 ± 3%.

As for `C[C@H](CCC(=O)Nc1cccc(F)c1)[C@H]1CC[C@H]2[C@@H]3CC[C@@H]4C[C@H](O)CC[C@]4(C)[C@H]3C[C@H](O)[C@]12C` [Compound 59], the activity at 125 µM in series [4] (setting [7]) worked out at 59 ± 5%.

For `Cc1ccc(F)cc1NC(=O)CC[C@@H](C)[C@H]1CC[C@H]2[C@@H]3CC[C@@H]4C[C@H](O)CC[C@]4(C)[C@H]3C[C@H](O)[C@]12C` [Compound 60], the activity at 125 µM in series [4] (setting [7]) worked out at 65 ± 0.9%.

As to `C[C@H](CCC(=O)Nc1ccccc1)[C@H]1CC[C@H]2[C@@H]3CC[C@@H]4C[C@H](O)CC[C@]4(C)[C@H]3CC[C@]12C` [Compound 61], the activity at 125 µM in series [4] (setting [7]) amounted to 100%.

Regarding `COc1ccccc1NC(=O)CC[C@@H](C)[C@H]1CC[C@H]2[C@@H]3CC[C@@H]4C[C@H](O)CC[C@]4(C)[C@H]3CC[C@]12C` [Compound 62], the “% Germination (125 μM)” value in series [4] (setting [8]) was 100%.

For the molecule `C[C@H](CCC(=O)Nc1cccc(F)c1)[C@H]1CC[C@H]2[C@@H]3CC[C@@H]4C[C@H](O)CC[C@]4(C)[C@H]3CC[C@]12C` [Compound 63], the activity at 125 µM in series [4] (setting [7]) came out at 100%.

Turning to `Cc1ccc(F)cc1NC(=O)CC[C@@H](C)[C@H]1CC[C@H]2[C@@H]3CC[C@@H]4C[C@H](O)CC[C@]4(C)[C@H]3CC[C@]12C` [Compound 64], the activity at 125 µM in series [4] (setting [7]) is 100%.

With `C[C@H](CCC(=O)Nc1ccccc1)[C@H]1CC[C@H]2[C@@H]3[C@@H](O)C[C@@H]4C[C@H](O)CC[C@]4(C)[C@H]3CC[C@]12C` [Compound 65], in series [4] (setting [7]), the activity at 125 µM amounted to 57 ± 0.8%.

As for `COc1ccccc1NC(=O)CC[C@@H](C)[C@H]1CC[C@H]2[C@@H]3[C@@H](O)C[C@]4(C)C[C@H](O)CC[C@]4(C)[C@H]3CC[C@]12C` [Compound 66], the activity at 125 µM in series [4] (setting [7]) stood at 100%.

On to `C[C@H](CCC(=O)Nc1cccc(F)c1)[C@H]1CC[C@H]2[C@@H]3[C@@H](O)C[C@]4(C)C[C@H](O)CC[C@]4(C)[C@H]3CC[C@]12C` [Compound 67], for which the activity at 125 µM in series [4] (setting [7]) was determined as 100%.

Regarding `Cc1ccc(F)cc1NC(=O)CC[C@@H](C)[C@H]1CC[C@H]2[C@@H]3[C@@H](O)C[C@@H]4C[C@H](O)CC[C@]4(C)[C@H]3CC[C@]12C` [Compound 68], in series [4] (setting [7]), the activity at 125 µM came to 100%.

With `C[C@H](CCC(=O)Nc1ccccc1)[C@H]1CC[C@H]2[C@@H]3CCC4CCCC[C@]4(C)[C@H]3CC[C@]12C` (stereo partly drawn) [N-(Phenyl)-cholan-24-amide], the IC50 is 270 µM with C. difficile 630 strain [1] and 1.8 µM in series [2] (R20291 strain, read-out: IC50 against R20291 strain).

For the molecule `C[C@H](CCC(=O)O)[C@H]1CC[C@H]2[C@@H]3[C@H](O)C[C@@H]4C[C@H](O)CC[C@]4(C)[C@H]3CC[C@]12C` [chenodeoxycholate], the inhibition constant (Ki) in series [3] is 378 µM.

Consider `C[C@H](CCC(=O)Nc1cccc(S(=O)(=O)O)c1)[C@H]1CC[C@H]2[C@@H]3[C@H](O)C[C@@H]4C[C@H](O)CC[C@]4(C)[C@H]3CC[C@]12C` [chenodeoxycholic analog of CamSA], for which the IC50 in the series with C. difficile 630 strain [1] was 6500 µM. Also, the “Potency relative to the cholate derivative CamSA (less potent)” value in the series with C. difficile 630 strain [6] is reported as “approximately 100 fold”.
